In ChEMBL document CHEMBL1201862, “PubChem BioAssay data set” (2004):
Activity calls are given as the source filed them.

Experiments:
[1] = target: Cytochrome P450 2C19 (Homo sapiens, UniProt P33261); assay: Cytochrome panel assay with activity outcomes. Panel member name: p450-cyp2c19 Compounds with AC50 equal or less than 10 uM are considered active; type: functional
[2] = target: Cytochrome P450 2C9 (Homo sapiens, UniProt P11712)
[3] = target: Cytochrome P450 2D6 (Homo sapiens, UniProt P10635);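 note: CYP2D6 member of a cytochrome P450 panel assay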
[4] = cytotoxicity toward NIH3T3 fibroblasts, dose response, counter-screen, cell-based, ATP luminescence, mouse fibroblasts (AID 2010); type: functional;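 note: cells exposed to compound for about 90 hours before reading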
[5] = inhibitors of intracellular T. cruzi replication, confirmation, NIH3T3 host cells, beta-gal luminescence (AID 2044); type: functional, cell-based;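 note: intracellular parasites grown in NIH/3T3 mouse fibroblasts as host cells; luminescent beta-galactosidase reporter signal from transgenic T. cruzi replicating inside host cells; inhibitors lower the luminescence signal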
[6] = target: Cytochrome P450 3A4 (Homo sapiens, UniProt P08684);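 note: CYP3A4 tested as one member of a cytochrome P450 panel screen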
[7] = Luminescence Cell-Based Dose Retest to Confirm Inhibitors of Cancer Stem Cells. [Related pubchem assays (depositor defined):AID2717, AID2721]; type: functional; settings: Homo sapiens
[8] = target: T1, Heat shock factor protein 1 (Mus musculus, UniProt P38532); assay: inhibition of MG132-induced HSE-luciferase signal, confirmation, cell-based, NIH3T3, luminescence, dose retest (AID 2382); type: functional;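 note: NIH3T3 fibroblasts with HSF1-driven luciferase reporter stressed by proteasome inhibitor MG132; luminescence from HSF1-driven luciferase expression after 8 hours of MG132 stress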
T1 sequence (P38532 whole entry): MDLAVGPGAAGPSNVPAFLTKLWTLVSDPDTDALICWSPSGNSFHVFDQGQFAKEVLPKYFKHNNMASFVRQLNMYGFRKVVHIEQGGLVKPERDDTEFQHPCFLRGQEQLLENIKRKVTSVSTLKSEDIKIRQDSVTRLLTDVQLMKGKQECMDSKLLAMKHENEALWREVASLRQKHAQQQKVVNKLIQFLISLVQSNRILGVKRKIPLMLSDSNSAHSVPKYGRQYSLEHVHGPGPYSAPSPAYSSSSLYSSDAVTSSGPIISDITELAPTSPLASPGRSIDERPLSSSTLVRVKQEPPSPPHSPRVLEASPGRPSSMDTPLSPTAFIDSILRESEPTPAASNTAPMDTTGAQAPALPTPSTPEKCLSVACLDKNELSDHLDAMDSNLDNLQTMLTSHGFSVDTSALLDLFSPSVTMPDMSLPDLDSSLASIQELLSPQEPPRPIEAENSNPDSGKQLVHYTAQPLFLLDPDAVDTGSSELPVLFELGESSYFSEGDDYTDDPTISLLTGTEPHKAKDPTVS

Cytochrome P450 2D6, sequence (P10635 whole entry): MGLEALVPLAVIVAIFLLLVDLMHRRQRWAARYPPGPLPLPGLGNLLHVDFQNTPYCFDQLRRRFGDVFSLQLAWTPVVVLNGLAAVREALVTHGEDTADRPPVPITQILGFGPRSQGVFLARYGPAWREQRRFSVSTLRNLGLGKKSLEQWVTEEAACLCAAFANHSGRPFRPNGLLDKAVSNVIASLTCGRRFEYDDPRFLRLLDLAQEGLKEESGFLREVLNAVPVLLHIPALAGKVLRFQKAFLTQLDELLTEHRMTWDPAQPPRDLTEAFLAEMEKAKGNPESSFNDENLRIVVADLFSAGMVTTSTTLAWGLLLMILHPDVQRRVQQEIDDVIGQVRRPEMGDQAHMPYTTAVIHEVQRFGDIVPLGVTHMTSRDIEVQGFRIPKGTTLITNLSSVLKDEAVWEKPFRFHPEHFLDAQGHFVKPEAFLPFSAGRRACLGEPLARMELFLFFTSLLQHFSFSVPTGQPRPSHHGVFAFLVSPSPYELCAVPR
Cytochrome P450 2C19, sequence (P33261 whole entry): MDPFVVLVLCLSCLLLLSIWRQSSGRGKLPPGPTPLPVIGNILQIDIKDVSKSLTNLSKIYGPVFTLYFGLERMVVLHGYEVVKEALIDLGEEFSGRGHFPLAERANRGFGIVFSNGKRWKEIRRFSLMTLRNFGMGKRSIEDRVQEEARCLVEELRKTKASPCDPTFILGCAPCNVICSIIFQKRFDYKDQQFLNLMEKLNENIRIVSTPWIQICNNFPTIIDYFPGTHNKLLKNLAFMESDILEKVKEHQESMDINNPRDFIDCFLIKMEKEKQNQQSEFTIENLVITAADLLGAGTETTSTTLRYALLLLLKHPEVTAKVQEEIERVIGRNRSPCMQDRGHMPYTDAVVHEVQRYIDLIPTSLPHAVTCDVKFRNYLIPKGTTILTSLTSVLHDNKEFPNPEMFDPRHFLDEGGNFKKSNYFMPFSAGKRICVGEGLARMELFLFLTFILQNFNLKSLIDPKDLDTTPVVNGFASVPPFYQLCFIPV
Cytochrome P450 3A4, sequence (P08684 whole entry): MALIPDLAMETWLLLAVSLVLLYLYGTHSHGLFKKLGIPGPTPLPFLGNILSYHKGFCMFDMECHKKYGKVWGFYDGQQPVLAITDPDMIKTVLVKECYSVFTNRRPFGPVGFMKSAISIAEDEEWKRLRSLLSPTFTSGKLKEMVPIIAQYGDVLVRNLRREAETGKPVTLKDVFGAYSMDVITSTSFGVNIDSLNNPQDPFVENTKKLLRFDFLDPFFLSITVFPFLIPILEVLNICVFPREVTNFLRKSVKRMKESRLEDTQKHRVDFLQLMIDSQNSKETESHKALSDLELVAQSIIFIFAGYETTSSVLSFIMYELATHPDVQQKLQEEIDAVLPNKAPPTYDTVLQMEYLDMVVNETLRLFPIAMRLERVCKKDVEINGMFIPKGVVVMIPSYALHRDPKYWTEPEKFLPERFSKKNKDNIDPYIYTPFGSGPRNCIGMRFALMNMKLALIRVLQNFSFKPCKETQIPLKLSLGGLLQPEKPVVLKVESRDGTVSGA
Cytochrome P450 2C9, sequence (P11712 whole entry): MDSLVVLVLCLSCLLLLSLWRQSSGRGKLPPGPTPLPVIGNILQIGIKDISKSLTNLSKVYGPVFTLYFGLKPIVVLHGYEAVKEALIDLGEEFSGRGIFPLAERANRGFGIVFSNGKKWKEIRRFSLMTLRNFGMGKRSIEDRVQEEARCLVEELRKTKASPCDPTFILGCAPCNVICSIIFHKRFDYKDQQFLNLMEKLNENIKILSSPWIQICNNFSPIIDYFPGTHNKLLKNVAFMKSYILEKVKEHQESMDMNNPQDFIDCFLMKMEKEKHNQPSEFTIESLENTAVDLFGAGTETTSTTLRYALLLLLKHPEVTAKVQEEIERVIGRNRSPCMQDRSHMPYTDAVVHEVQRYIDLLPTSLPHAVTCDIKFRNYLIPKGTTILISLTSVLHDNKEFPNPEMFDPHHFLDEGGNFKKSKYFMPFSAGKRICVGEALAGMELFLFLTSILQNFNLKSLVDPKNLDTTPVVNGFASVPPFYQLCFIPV

## CCc1c(C)c(C#N)c2nc3ccccc3n2c1Nc1c(C)n(C)n(-c2ccccc2)c1=O
[1]; read-out: AC50
  AC50: 25.1 µM (inconclusive)
[2]
  AC50: 5.01 µM (inconclusive)

## Cc1ccc(-c2nnc(S)n2/N=C/c2cccn2C)cc1
[3]
  AC50: 5.01 µM (inconclusive)

## COc1ccc2c(c1)C=C(CN1CCN(C3CCCC3)C(CCO)C1)CO2 (stereo not given)
[4]
  EC50: > 60 µM (not active)
[5]
  EC50: 1.75 µM (active)

## N#Cc1ccccc1-c1ccc2ncnc(NCc3cccs3)c2c1
[1]; read-out: AC50
  AC50: 39.8 µM (inconclusive)
[2]
  AC50: 1 µM (inconclusive)

## Cc1ccccc1-c1cncnc1Nc1ccccc1
[3]
  AC50: 39.8 µM (inconclusive)

## Cc1cc(N2CCOCC2)ncc1[N+](=O)[O-]
[2]
  AC50: 14.1 µM (inconclusive)

## COC(=O)[C@@]1(Cc2ccc(OC)cc2)[C@H]2c3cc(C(=O)N4CCCC4)n(Cc4cc(F)c(F)c(F)c4)c3C[C@H]2CN1C(=O)c1ccccc1
[1]; read-out: AC50
  AC50: 1.58 µM (inconclusive)

## N=C(N)N[C@H](CCC(=O)O)C(=O)O
[6]
  AC50: 3.16 µM (inconclusive)

## Cc1[nH]n(-c2ccccc2)c(=O)c1/N=N/c1cccc([N+](=O)[O-])c1
[4]
  EC50: > 60 µM (not active)
[5]
  EC50: > 30 µM (not active)

## O=C(c1csnn1)N1CCC[C@@]2(CCN(Cc3nccs3)C2)C1
[1]; read-out: AC50
  AC50: 25.1 µM (inconclusive)

## Cc1ccc(-c2csc(NCCn3c(-c4ccncc4)nc4cc(C(F)(F)F)ccc43)n2)cc1
[7]
  AC50: 8 µM (active)

## CC(=O)CC(=O)Nc1ccc2ccccc2c1
[1]
  AC50: inconclusive

## O=C(Cn1c(-c2cscn2)nc2ccccc21)Nc1cc(F)ccc1F
[3]
  AC50: 22.4 µM (inconclusive)

## Cc1cc(Cl)ccc1OCC(=O)Nc1nc(-c2cccnc2)cs1
[8]
  EC50: > 195 µM (not active)

## CCC1=NN(C(=O)c2ccc(Cl)cc2)C(O)(c2ccc(C)cc2)C1 (stereo not given)
[7]
  AC50: 4.64 µM (active)

## CCOC(=O)c1c(C)nc2c(c1-c1ccccc1)C(=O)CC(C)(C)C2
[2]
  AC50: 15.8 µM (inconclusive)

## COc1ccc(CN2CCN(Cc3csc(C(C)=O)c3)CC2CCO)c(C)c1C (stereo not given)
[4]
  EC50: > 60 µM (not active)
[5]
  EC50: 0.284 µM (active)

## COc1ccc(-n2c(-c3ccccc3)nc(=S)c3c2CCCC3)cc1
[6]
  AC50: 20 µM (inconclusive)

## C[C@@]12CCC(=O)C=C1CC[C@H]1[C@@H]2[C@@H](O)C[C@]2(C)[C@@H]1CC[C@@]2(O)C(=O)COC(=O)C1CCCC1
[6]
  AC50: 5.01 µM (inconclusive)

## COc1cc(NC(=O)N[C@@H](Cc2c[nH]c3ccccc23)C(=O)O)c(C(=O)O)cc1OC
[8]
  EC50: > 195 µM (not active)

## Cn1c(=N)n(CC(O)c2ccccc2)c2ccccc21 (stereo not given)
[8]
  EC50: > 195 µM (not active)

## Cc1nn(-c2ccccc2)c2nc(N)c(C#N)c(-c3ccc(C(C)(C)C)cc3)c12
[7]
  AC50: 2.14 µM (active)

## CCC(=O)N1CCc2cc(S(=O)(=O)NC(C(=O)NCc3ccc(C)cc3)C(C)C)ccc21 (stereo not given)
[8]
  EC50: > 195 µM (not active)

## Cc1ccc(C)c(N2CN(Cc3cccnc3)CN=C2S)c1
[4]
  EC50: > 60 µM (inconclusive)
[5]
  EC50: 0.726 µM (active)

## C=CCC(C(=O)OC)(C(=O)OC)c1ccc([N+](=O)[O-])cn1
[1]; read-out: AC50
  AC50: 14.1 µM (inconclusive)

## COc1cc(C(=O)N/N=C(\Cc2ncc[nH]2)c2ccccc2)cc(OC)c1OC
[7]
  AC50: 2.89 µM (active)

## CC(C)(C)C(=O)N1CCC(O)(CS(=O)(=O)Cc2ccc(Cl)cc2)CC1
[6]
  AC50: 20 µM (inconclusive)

## NC(=O)c1cc2ccncc2c2ccccc12
[8]
  EC50: 4.29 µM (active)

## O=S(=O)(NCC(c1cccnc1)N1CCN(Cc2ccccc2)CC1)c1ccc(Cl)cc1 (stereo not given)
[4]
  EC50: > 60 µM (not active)
[5]
  EC50: 0.641 µM (active)

## N#Cc1cc(-c2ccc(Cl)cc2)cnc1Sc1ccccc1
[4]
  EC50: > 60 µM (not active)
[5]
  EC50: 3.77 µM (active)

## CC1=C(CC(=O)O)c2cc(F)ccc2/C1=C\c1ccc(S(C)(=O)=O)cc1 [EXISULIND]
[1]
  AC50: inconclusive

## CC(=O)Nc1ccccc1C(=O)OCC(=O)c1ccc2ccccc2c1
[1]; read-out: AC50
  AC50: 1.26 µM (inconclusive)

## O=C(Oc1ccccc1)N1CCC2(CCCN(c3ccccc3)C2)CC1
[6]
  AC50: 31.6 µM (inconclusive)
[2]
  AC50: 12.6 µM (inconclusive)

## CCSc1nnc(NC(=O)Cc2ccc(OC)c(OC)c2)s1
[1]; read-out: AC50
  AC50: 28.2 µM (inconclusive)
[2]
  AC50: 2.82 µM (inconclusive)

## COc1ccccc1-c1cncnc1NCCNC(C)=O
[1]; read-out: AC50
  AC50: 39.8 µM (inconclusive)

## CN1CCN(c2ccc(S(=O)(=O)N3CCOCC3)cc2NC(=O)CCc2ccccc2)CC1
[4]
  EC50: > 30 µM (not active)
[5]
  EC50: 1.58 µM (active)

## COc1cccc(CN(C)CC2CCCN(CCc3ccc(Cl)cc3)C2)c1OC (stereo not given)
[8]
  EC50: > 195 µM (not active)

## Cc1cc(C(=O)Nc2nc3c(s2)CCCC3)cs1
[7]
  AC50: 1.97 µM (active)

## C/C(=N\N(Cc1ccccc1)c1ccccc1)c1cccnc1
[4]
  EC50: > 60 µM (not active)
[5]
  EC50: 3.78 µM (active)

## CC(C)(C)c1ccc(C(=O)Nc2cccc3c(=O)[nH][nH]c(=O)c23)cc1
[8]
  EC50: 3.66 µM (active)

## O=C(COC(=O)c1cccnc1Cl)c1ccccc1
[1]; read-out: AC50
  AC50: 39.8 µM (inconclusive)
[2]
  AC50: 17.8 µM (inconclusive)

## COc1ccc(/C=C/C(=O)OCCCN(C)C)cc1
[4]
  EC50: > 60 µM (not active)
[5]
  EC50: 0.237 µM (active)

## CC(=O)OC1N=C(c2ccccc2)c2cc(Br)ccc2N(C)C1=O (stereo not given)
[1]; read-out: AC50
  AC50: 39.8 µM (inconclusive)
[2]
  AC50: 17.8 µM (inconclusive)

## CCN1C(=O)/C(=C\c2ccncc2)S/C1=N\c1ccc(C)c(C)c1
[7]
  AC50: 3.77 µM (active)

## CC(=O)Nc1ccc2c(c1)/C(=N/c1ccc(C(=O)O)cc1)c1ccccc1-2
[6]
  AC50: 3.98 µM (inconclusive)

## O=C1C=CC(=O)c2c1ccc1c2ccc2ccccc21
[3]
  AC50: 5.01 µM (inconclusive)

## C/C(=N\NC(=O)c1c(C)nc2ccccn12)c1ccc(C(C)(C)C)cc1
[8]
  EC50: > 195 µM (not active)

## Cc1cccc(N(C(=O)C(F)(F)F)C(C(=O)NC2CCCCC2)c2cccs2)c1 (stereo not given)
[4]
  EC50: > 60 µM (not active)
[5]
  EC50: 3.39 µM (active)

## c1cncc(CNc2nc(-c3ccoc3)nc3ccccc23)c1
[1]; read-out: AC50
  AC50: 20 µM (inconclusive)

## CC1(C)C[C@H](O)[C@]2(CO)[C@H](O)C[C@]3(C)C(=CCC4[C@@]5(C)CC[C@H](O)C(C)(C)C5CC[C@]43C)[C@@H]2C1 (stereo not given in full)
[7]
  AC50: 1.97 µM (active)

## Cc1ccc(C(=O)Nc2ccc(C(=O)/C=C/c3cccs3)cc2)cc1
[1]; read-out: AC50
  AC50: 7.08 µM (inconclusive)
[6]
  AC50: 5.01 µM (inconclusive)
[2]
  AC50: 11.2 µM (inconclusive)

## CN=C(S)N(CCc1c(C)[nH]c2ccc(Cl)cc12)Cc1cccs1
[4]
  EC50: > 30 µM (not active)
[5]
  EC50: 2.28 µM (active)

## Cc1cccn2c(=O)c3cc(C(=O)N4COCC4(C)C)n(C)c3nc12
[1]; read-out: AC50
  AC50: 4.47 µM (inconclusive)

## COCCn1c(=O)[nH]c2cc(C(=O)N3CCN(c4ccccc4OC)CC3)ccc2c1=O
[1]; read-out: AC50
  AC50: 6.31 µM (inconclusive)
[6]
  AC50: 14.1 µM (inconclusive)

## Cc1ccc(C(=O)N(CCCN(C)C)c2nc3ccc(Cl)cc3s2)cc1C
[4]
  EC50: > 60 µM (inconclusive)
[5]
  EC50: 0.216 µM (active)

## COc1ccc(CC2SC(N/N=C/c3ccccc3O)=NC2=O)cc1 (stereo not given)
[7]
  AC50: 8.79 µM (active)

## CCOC(=O)N1CCC(NC(=O)CCC(=O)N2CCOc3ccccc32)CC1
[1]; read-out: AC50
  AC50: 14.1 µM (inconclusive)
[6]
  AC50: 10 µM (inconclusive)

## CCn1cc(S(=O)(=O)Nc2ccc3c(c2)OCCO3)cn1
[8]
  EC50: 1.86 µM (active)

## COC(=O)C/C=C\[C@@H](C)[C@@H](/C=N\OC[C@@H](C)[C@H](OCc1ccccc1)C(C)C)OC
[1]; read-out: AC50
  AC50: 2 µM (inconclusive)
[6]
  AC50: 3.16 µM (inconclusive)
[2]
  AC50: 3.16 µM (inconclusive)

## CCc1ccc(NC(=O)C2CCC(CNC(=O)[C@@H]3Cc4ccccc4CN3)CC2)cc1 (stereo not given in full)
[8]
  EC50: > 195 µM (not active)

## CCOc1ccc(CCNC(=O)c2nn(C)c3c2CS(=O)(=O)c2ccccc2-3)cc1
[8]
  EC50: > 195 µM (not active)

## CCc1nnc(N/N=C\c2ccc(OC(C)=O)c(OC)c2)n1N
[8]
  EC50: > 195 µM (not active)

## COC(=O)[C@H]1C[C@@H]1[C@H](NC(=O)c1cc(C)on1)c1ccccc1
[6]
  AC50: 15.8 µM (inconclusive)
[2]
  AC50: 31.6 µM (inconclusive)

## Cc1cccc(CNc2nc(-c3ccc4c(c3)OCO4)nc3ccccc23)c1
[2]
  AC50: 1 µM (inconclusive)

## CCOc1ccc(-c2nnc3ccc(SC)nn23)cc1
[1]; read-out: AC50
  AC50: 7.94 µM (inconclusive)

## CCCNC(=O)c1cccc(COCC(F)(F)F)c1
[8]
  EC50: > 195 µM (not active)

## CN1CC[C@@]2(CCCN(C(=O)c3cc(C(F)(F)F)cc(C(F)(F)F)c3)C2)C1
[6]
  AC50: 25.1 µM (inconclusive)

## CS(=O)(=O)N1CCN(c2cccc(Cl)n2)CC1
[8]
  EC50: > 195 µM (not active)

## COc1ccc(OC)c(-c2csc(N(CC3CCCO3)C(=O)C3CCCCC3)n2)c1 (stereo not given)
[7]
  AC50: 3.5 µM (active)

## Cc1cc(C)c(S(=O)(=O)N/N=C/c2ccc3c(c2)OCO3)c(C)c1
[8]
  EC50: > 195 µM (not active)
